# Measured values published in patent US12479878B2, “Crystallization of 2′-FL” (Glycom A/S, priority 2020, dated 2025).
# Key:
# Format in all cases: physicochemical
# [1] = Pressure filtration of crystallization slurry (overall filtration rate); details: for filtration rate: 75 ml slurry pressure filtered at ΔP=1 bar, polypropylene filter cloth pore size about 3 μm, filtration area 13 cm^2, filtrate volume/(time·filter area); for filterability improvement relative to prior art: relative to WO 2016/095924 example 2 slurry
# Description: A sample of the crystallization slurry (75 ml) after completing the crystallization from examples 1-3 above, respectively, and from the prior art (according to WO 2016/095924 example 2, with the difference that the procedure was conducted at 35° C. instead of room temperature and the concentrated syrup was of 62° Bx (140.2 g; containing 48.8 wt % of 2′-FL, 1.3 wt % of lactose and 5.4 wt % of DFL)) was collected and pressure filtered at ΔP=1 bar using a polypropylene filter cloth with a pore size of about 3 μm and a filtration area of 13 cm^2, and the time until the beginning of the liquid-gas mass transfer was measured. The filterability of the slurries was compared by calculating an overall filtration rate according to the following equation: filtrate volume [cm^3]/(time [sec]·filter area [cm^2]).
# [2] = Residual AcOH content (Megazyme K-ACETRM 07/12); details: dried crystals
# Description: (§1) The water content of dried crystal powder was measured by Karl-Fischer titration. Residual AcOH content was measured using Megazyme K-ACETRM 07/12.
# [3] = Water content of dried crystal powder by Karl-Fischer titration; details: dried crystals
# Description: as §1
# [4] = Loss on drying of wet filter cake; details: for LoD relative to prior art: relative to WO 2016/095924 example 2 filter cake
# Description: A sample of the slurry (75 ml) was collected and pressure filtered at 1 bar. Another sample of the slurry (75 ml) was collected, pressure filtered at 1 bar and the filter cake was washed with acetic acid (28 g). The washed and the unwashed solid wet filter cakes were dried overnight at 65° C. and 50 mbar generating loss on drying (LoD) of 17.3% and 23.2 respectively. The concentrations of 2′-FL and other impurities in the mother liquor as well as dried solids were assayed via HPLC. The unwashed dried crystalline material contained 95.3% of 2′-FL and yielded 81.5% of crystalline 2′-FL polymorph II, while the purity of the washed filter cake increased to 97.0%.
# Then the filtration was continued for 60 sec. The so-obtained solid wet filter cake was dried overnight (14 hours) at 65° C. and 50 mbar, and loss of drying was determined (see data in the table below).
# [5] = filter cake washed with acetic acid, dried overnight at 65° C. and 50 mbar
# [6] = unwashed solid wet filter cake dried overnight (14 hours) at 65° C. and 50 mbar
SMILES,filtration rate [1] [cm/s],filterability improvement relative to prior art [1] [x],AcOH content [2] [wt %],H2O content [3] [wt %],"LoD (loss on drying) [4, 5] [%]",LoD relative to prior art [4],"LoD (loss on drying) [4, 6] [%]"
"C[C@@H]1OC(O[C@H]2[C@H](O[C@H]3[C@H](O)[C@@H](O)C(O)O[C@@H]3CO)O[C@H](CO)[C@H](O)[C@@H]2O)[C@@H](O)[C@H](O)[C@@H]1O (single isomer, unassigned) [Example 1, 2′-O-fucosyllactose]",0.39,6.12,0.15,0.06,17.3,0.44-fold fold lower,23.2
"C[C@@H]1OC(O[C@H]2[C@H](O[C@H]3[C@H](O)[C@@H](O)C(O)O[C@@H]3CO)O[C@H](CO)[C@H](O)[C@@H]2O)[C@@H](O)[C@H](O)[C@@H]1O (single isomer, unassigned) [Example 4, 2′-O-fucosyllactose]",–,–,–,–,–,–,48.5

# Results, then the molecule that gave them:
filtration rate [1] [cm/s],filterability improvement relative to prior art [1] [x],AcOH content [2] [wt %],H2O content [3] [wt %],"LoD (loss on drying) [4, 5] [%]",LoD relative to prior art [4],"LoD (loss on drying) [4, 6] [%]",SMILES
0.064,–,0.58,0.63,–,–,52.9,"C[C@@H]1OC(O[C@H]2[C@H](O[C@H]3[C@H](O)[C@@H](O)C(O)O[C@@H]3CO)O[C@H](CO)[C@H](O)[C@@H]2O)[C@@H](O)[C@H](O)[C@@H]1O (stereo partly drawn) [WO 2016/095924, 2′-O-fucosyllactose, reference compound]"
0.62,9.78,0.36,0.05,–,0.46-fold fold lower,24.7,"C[C@@H]1OC(O[C@H]2[C@H](O[C@H]3[C@H](O)[C@@H](O)C(O)O[C@@H]3CO)O[C@H](CO)[C@H](O)[C@@H]2O)[C@@H](O)[C@H](O)[C@@H]1O (single isomer, unassigned) [Example 2, 2′-O-fucosyllactose]"
0.16,2.57,0.11,–,16.1,0.42-fold fold lower,22.5,"C[C@@H]1OC(O[C@H]2[C@H](O[C@H]3[C@H](O)[C@@H](O)C(O)O[C@@H]3CO)O[C@H](CO)[C@H](O)[C@@H]2O)[C@@H](O)[C@H](O)[C@@H]1O (single isomer, unassigned) [Example 3, 2′-O-fucosyllactose]"
